Assay results: patent publication US10196395B2, “Crystalline form alpha of IPI-145 and preparation method thereof” (CRYSTAL PHARMATECH CO., LTD., priority 2015, dated 2019)
“Also recorded” adds a separate entry of the source.

Key:
[1] = cited from earlier work
[2] = Stability assessment: 1:1 mixture of Form α and anhydrous Form A stirred in tetrahydrofuran, solid tested by XRPD; assay type: physicochemical; conditions: 25° C. and 50° C.
Protocol: Form α of the present disclosure and anhydrous Form A in CN103648499A were mixed with a mass ratio of 1:1 and stirred in tetrahydrofuran at 5° C., 25° C. and 50° C. at a rate of 500 r/min for 24 h.

[3] = Hygroscopicity assessment by dynamic vapor sorption (DVS); assay type: physicochemical; conditions: 25° C.; for Weight gain under 80% RH: DVS, 10 mg
Protocol: Dynamic Vapor Sorption (DVS) was measured via Dynamic Vapor Sorption Intrinsic manufacture by SMS's (Surface Measurement Systems Ltd.). Typical Parameters for DVS test were listed below.
Gas and flow rate: N2, 200 mL/min
RH range: 0% RH to 95% RH
Hygroscopicity of 10 mg Form α of the present invention was tested using dynamic vapor sorption (DVS).
About hygroscopicity characterization description and definition of hygroscopicity (Chinese Pharmacopoeia 2010 edition appendix XIXJ Drug hygroscopic test guidelines, test at 25° C.±1, 80% Relative Humidity) • deliquescent: sufficient water is absorbed to form a liquid; • very hygroscopic: increase in mass is equal to or greater than 15 percent; • hygroscopic: increase in mass is less than 15 percent and equal to or greater than 2 percent; • slightly hygroscopic: increase in mass is less than 2 percent and equal to or greater than 0.2 percent; • no or almost no hygroscopic: increase in mass is less than 0.2%.

C[C@H](Nc1ncnc2[nH]cnc12)c1cc2cccc(Cl)c2c(=O)n1-c1ccccc1 [Form C, (S)-3-(1-(9H-purin-6-ylamino)ethyl)-8-chloro-2-phenylisoquinolin-1(2H)-one]
Crystallinity after grinding [1]: decrease or turns into amorphous

C[C@H](Nc1ncnc2[nH]cnc12)c1cc2cccc(Cl)c2c(=O)n1-c1ccccc1 [Form A, (S)-3-(1-(9H-purin-6-ylamino)ethyl)-8-chloro-2-phenylisoquinolin-1(2H)-one]
Form conversion on stirring ([2]; at 5° C., tetrahydrofuran, 24 h): converted to Form α

C[C@H](Nc1ncnc2[nH]cnc12)c1cc2cccc(Cl)c2c(=O)n1-c1ccccc1 [Form α, (S)-3-(1-(9H-purin-6-ylamino)ethyl)-8-chloro-2-phenylisoquinolin-1(2H)-one]
Hygroscopicity according to hygroscopic test guidelines ([3]; Chinese Pharmacopoeia 2010 definition, 80% Relative Humidity): slightly hygroscopic (increase in mass is less than 2 percent and equal to or greater than 0.2 percent)
Weight gain under 80% RH ([3]; listed as Crystalline Form α of compound of Formula (I)): 0.67%
Weight gain under 80% RH ([3]; listed as crystalline Form α): 0.67%
Stability relative to anhydrous Form A in CN103648499A ([2]; conclusion from stirring the mixture at 5° C.): more thermodynamic stable than Form A in CN103648499A; also recorded: more stable than anhydrous Form A in CN103648499A
